# In patent US7956069B2, “Compounds” (AstraZeneca AB, priority 2006, dated 2011):
# What was measured:
# Type in all cases: cell-based
# [1] = target: T1, hM1 (human Muscarinic receptor subtype 1) (Homo sapiens, UniProt P11229); experiment: Human M1 calcium mobilization FLIPR assay; conditions: CHO cells expressing hM1, Ca2+ release
# T1 construct: expressed in transfected cells; host or cells: CHO cells (Chinese hamster ovary cells, ATCC)
# T1 sequence (P11229 1-460): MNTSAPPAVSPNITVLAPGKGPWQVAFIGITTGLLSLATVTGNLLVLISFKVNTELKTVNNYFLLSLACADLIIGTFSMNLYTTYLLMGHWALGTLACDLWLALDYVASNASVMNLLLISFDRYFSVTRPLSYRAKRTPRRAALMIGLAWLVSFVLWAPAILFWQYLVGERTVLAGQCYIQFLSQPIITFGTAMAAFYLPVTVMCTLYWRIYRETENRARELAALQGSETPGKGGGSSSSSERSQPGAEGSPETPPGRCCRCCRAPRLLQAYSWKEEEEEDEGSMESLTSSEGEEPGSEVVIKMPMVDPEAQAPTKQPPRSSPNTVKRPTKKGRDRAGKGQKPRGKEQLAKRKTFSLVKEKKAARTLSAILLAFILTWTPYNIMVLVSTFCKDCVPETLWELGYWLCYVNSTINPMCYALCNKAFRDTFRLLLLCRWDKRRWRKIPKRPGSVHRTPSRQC
# Method: (§1) Biological Evaluation Human M1, Rat M1, Human M3 and Human M5 Calcium Mobilization FLIPR™ Assay
# (§2) The compound activity in the present invention (EC50 or IC50) was measured using a 384 plate-based imaging assay that monitors drug induced intracellular Ca^2+ release in whole cells. Activation of hM1 (human Muscarinic receptor subtype 1, gene bank access NM_000738), rM1 (rat Muscarinic receptor subtype 1, gene bank access NM_080773), hM3 (human Muscarinic receptor subtype 3, gene bank access NM_000740NM_000740) and hM5 (human Muscarinic receptor subtype 5, gene bank access NM_0121258), receptors expressed in CHO cells (Chinese hamster ovary cells, ATCC) was quantified in a Molecular Devices FLIPR II™ instrument as an increase in fluorescent signal. Inhibition of hM3 and hM5 by compounds was determined by the decrease in fluorescent signal in response to 20 nM carbachol activation.
# (§3) CHO cells were plated in 384-black polylysine coated plate (Costar) at 8000 cells/well/50 μl for 24 hours or 4000 cells/well for 48 hours in a humidified incubator (5% CO2 and 37° C.) in DMEM/F12 medium without selection agent. Prior to the experiment the cell culture medium was removed from the plates by inversion. A loading solution of 30 μl of Hank's balanced salt solution, 10 mM Hepes and 2.5 mM Probenicid at Ph 7.4 (Cat no. 311-520-VL, Wisent) with 2 μM calcium indicator dye (FLUO-3AM, Molecular Probes F14202) was added to each well. Plates were incubated at 37° C. for 60 minutes prior to start the experiment. The incubation was terminated by washing the cells four times in assay buffer, leaving a residual 25 μl buffer per well. Cell plates were then transferred to the FLIPR, ready for compound additions.
# (§4) The day of experiment, carbachol and compounds were diluted in three-fold concentration range (10 points serial dilution) for addition by FLIPR instrument. For all calcium assays, a baseline reading was taken for 30 seconds followed by the addition of 12.5 μl (25 μl for hM1 and rM1) of compounds, resulting in a total well volume of 37.5 μl (50 μl for hM1 and rM1). Data were collected every 1.6 seconds for 300 seconds. For hM3 and hM5 an additional 12.5 μl of carbachol (20 nM final) was added at 300 seconds. After this addition of carbachol (producing a final volume of 50 μl), the FLIPR continued to collect data every 2 seconds for 240 seconds. The fluorescence emission was read using filter 1 (emission 520-545 nm) by the FLIPR on board CCD camera.
# (§5) Calcium mobilization output data were calculated as the maximal relative fluorescence unit (RFU) minus the minal value for both compound and agonist reading frame (except for hM1 and rM1 using only the maximal RFU). Data were analyzed using sigmoidal fits of a non-linear curve-fitting program (XLfit version 5.0.6 from ID Business Solutions Limited, Guildford, UK). All EC50 and IC50 values are reported as arithmetic means±standard error of mean of ‘n’ independent experiments.
# [2] = target: T2, hM5 (human Muscarinic receptor subtype 5) (Homo sapiens, UniProt P08912); experiment: Human M5 calcium mobilization FLIPR assay; conditions: CHO cells expressing hM5, Ca2+ release
# T2 construct: expressed in transfected cells; host or cells: CHO cells (Chinese hamster ovary cells, ATCC)
# T2 sequence (P08912 1-532): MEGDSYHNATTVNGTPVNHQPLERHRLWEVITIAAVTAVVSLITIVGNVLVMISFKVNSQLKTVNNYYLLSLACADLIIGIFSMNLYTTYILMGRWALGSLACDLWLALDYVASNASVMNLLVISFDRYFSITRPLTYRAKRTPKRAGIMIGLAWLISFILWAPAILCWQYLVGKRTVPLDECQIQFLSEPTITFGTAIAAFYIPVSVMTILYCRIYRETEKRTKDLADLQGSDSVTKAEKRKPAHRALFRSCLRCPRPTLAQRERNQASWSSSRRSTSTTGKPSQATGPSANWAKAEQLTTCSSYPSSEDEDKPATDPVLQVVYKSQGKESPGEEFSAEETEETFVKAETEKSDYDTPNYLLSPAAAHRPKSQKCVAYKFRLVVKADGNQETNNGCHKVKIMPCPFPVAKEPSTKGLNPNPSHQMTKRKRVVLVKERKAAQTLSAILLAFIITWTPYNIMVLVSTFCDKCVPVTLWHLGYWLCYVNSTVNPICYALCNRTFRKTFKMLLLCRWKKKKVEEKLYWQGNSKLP
# Method: as §1, §2, §3, §4, §5
# [3] = target: T3, hM3 (human Muscarinic receptor subtype 3) (Homo sapiens, UniProt P20309); experiment: Human M3 calcium mobilization FLIPR assay; conditions: CHO cells expressing hM3, Ca2+ release
# T3 construct: expressed in transfected cells; host or cells: CHO cells (Chinese hamster ovary cells, ATCC)
# T3 sequence (P20309 whole entry): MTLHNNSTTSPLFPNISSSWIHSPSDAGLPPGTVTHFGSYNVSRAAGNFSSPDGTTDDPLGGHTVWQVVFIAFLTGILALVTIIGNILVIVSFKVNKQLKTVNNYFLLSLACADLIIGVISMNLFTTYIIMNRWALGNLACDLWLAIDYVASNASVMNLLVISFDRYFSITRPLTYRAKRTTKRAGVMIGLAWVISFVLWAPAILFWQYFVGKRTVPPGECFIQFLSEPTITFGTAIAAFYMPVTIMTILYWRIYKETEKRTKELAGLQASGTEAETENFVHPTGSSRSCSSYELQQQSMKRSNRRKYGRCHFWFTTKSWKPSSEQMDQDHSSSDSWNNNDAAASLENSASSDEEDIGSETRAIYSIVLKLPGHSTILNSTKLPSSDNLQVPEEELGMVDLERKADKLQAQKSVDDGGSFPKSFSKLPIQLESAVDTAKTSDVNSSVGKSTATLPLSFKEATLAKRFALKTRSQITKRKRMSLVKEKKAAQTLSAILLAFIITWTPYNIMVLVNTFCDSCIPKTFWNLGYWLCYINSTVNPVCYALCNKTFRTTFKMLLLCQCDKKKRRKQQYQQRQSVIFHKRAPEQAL
# Method: as §1, §2, §3, §4, §5
SMILES,EC50 [1],EC50 [2],EC50 [3]
O=C(C1CCCC1)N1CCC(N2CCC(N3C(=O)N[C@@H]4CCCC[C@@H]43)CC2)CC1,300 nM,–,–
O=C(c1ccccc1)N1CCC(N2CCC(N3C(=O)N[C@@H]4CCCC[C@H]43)CC2)CC1,600 nM,–,–
CCOC(=O)N1CCC(N2CCC(N3C(=O)N(C(C)C)[C@H]4CCCC[C@@H]43)CC2)CC1,1200 nM,> 40 µM,> 40 µM
CCNC(=O)N1CCC(N2CCC(N3C(=O)N[C@@H]4CCCC[C@H]43)CC2)C1 (mixture of isomers),1000 nM,–,–

# Compounds with a lower EC50 [1], results first:
EC50 [1],EC50 [2],EC50 [3],SMILES
93 nM,> 40 µM,> 40 µM,Cc1ccccc1C(=O)N1CCC(N2CCC(N3C(=O)C[C@H]4CCCC[C@@H]43)CC2)CC1
81 nM,–,–,O=C(C1CC1(F)F)N1CCC(N2CCC(N3C(=O)N[C@H]4CCCC[C@@H]43)CC2)CC1 (some centres unmarked)
59 nM,–,–,"CCOC(=O)N1CCC(N2CCC(N3C(=O)C[C@H]4CCCC[C@@H]43)CC2)C1 (single isomer, unassigned)"
